Reference: US8084627B2, “Hydroxymethyl fluorescein derivatives for use as biological markers and dyes” (University of Pittsburgh-of the Commonwealth System of …, priority 2007, dated 2011)

What was measured:
live human cells = conditions: compared with Tokyo Green; cited from earlier work
Zebrafish embryos = experiment: Zebrafish embryo staining: localization and tissue permeability; type: in vivo; conditions: confocal projections of head and tail, 80 μm of embryonic interior
From the text: Zebrafish embryos were stained with compound 3 and compound 4 in order to assess the localization and tissue permeability of each compound in vivo. This procedure had not previously been attempted in zebrafish embryos with an unconjugated fluorescein derivative. Therefore, the commercially available BODIPY TR methyl ester was used as a control stain since it has been successfully used for this purpose.[10] […] Yolk sacs and yolk extensions always appeared brighter than the embryos themselves (FIG. 3A-C). This is likely the result of compound accumulation within the lipidic yolk platelets that comprise almost the entire volume of the yolk.[11]
Structures containing little organic material, including scales and calcified otoliths, were not stained. Confocal sections of the dorsal midline (FIG. 3H, J, L) indicate that the notochord sheath and surrounding tissue are efficiently labeled, while the notochord vacuoles remain unstained.

[1] = carboxyl group replaced with methyl group; cited from earlier work

## Cc1ccccc1-c1c2cc(F)c(=O)cc-2oc2cc(O)c(F)cc12 [Pennsylvania Green]
Live human cells
  fluorescence in live human cells: more fluorescent than Tokyo Green

## COC(=O)COc1ccc(C2=[N+]3C(=Cc4ccc(-c5cccs5)n4[B-]3(F)F)C=C2)cc1 [BODIPY TR methyl ester]
Zebrafish embryos
  permeation of live tissue: permeate live tissue to similar extents

## Cc1ccccc1-c1c2ccc(=O)cc-2oc2cc(O)ccc12 [Tokyo Green]
[1]
  quantum yield relative to fluorescein: no loss of quantum yield
